{
  "source": "patent US20230232863A1",
  "about": "“FEED COMPOSITION FOR TENEBRIO MOLITOR” (priority 2022, published 2023)",
  "key": {"Phenoloxidase": {"system": "Phenoloxidase", "experiment": "Phenoloxidase activity analysis in homogenized larvae tissue", "assay_type": "in vivo, Tenebrio molitor", "details": "after alloferon diet", "protocol": "For various analysis of biologic response, harvested mealworms larvae were killed by freezing and then all mealworms stored at −20° C. Penoloxidase activity in homogenized larvae tissue was analyzed with a 96 well microplate reader using catechol as the substrate. After the sample was incubated for 37° C. for 10 min, the 420 nm absorbance was measured with a microplate spectrophotometer (Bio-Rad, CA, USA). The essay was performed with three replicates and each experiment was repeated three times. The penoloxidase activity was expressed as units of enzyme activity per mg protein."}, "Tenebrio molitor [1]": {"system": "Tenebrio molitor", "experiment": "Mealworm larvae feeding: development time (larvae-pupae transformation)", "assay_type": "in vivo", "details": "days until 50% of larvae changed into pupae; laboratory scale; alloferon 1 ppm", "protocol": "The feeding gelatin was made with combining 200 g of distilled water and 4 g of paper gelatin (Gelita H G, Eberbach, Germany), and solidified in the refrigerator using an ice cubic stick tray with the lid closed. The same process was performed for the experimental group of gelatin containing alloferon peptide (Biomatik, Del., USA) of 1 ppm. The tray had 10 slots to make each gelatin of approximately 20 g gelatin cubic and kept in the refrigerator with the lids closed to minimize loss of moisture. Yellow mealworms (Tenebrio molitor) were provided by a private local insect breeder (Mealworm village, Seoul, Korea). Mealworms larvae were divided into three different dietary groups: (1) About 500 larvae were placed in a plastic container (18.5×12×5.5 cm) with 30 g wheat bran only (control group), (2) About 500 larvae with wheat bran supplemented with 20 g gelatin three times per week (positive control group), (3) About 500 larvae with wheat bran supplemented with 20 g gelatin containing alloferon peptide of 1 ppm three times per week (experimental group). Two replicated containers per each dietary group were set up, after which the containers were placed in a climate chamber at 25° C. with a relative humidity of 60%. Development time of mealworms was considered to be the number of days until 50% of mealworms larvae changed into pupae stage."}, "Tenebrio molitor [2]": {"system": "Tenebrio molitor", "experiment": "Mealworm larvae feeding: survival rate", "assay_type": "in vivo", "details": "alloferon peptide of 1 ppm", "protocol": "The feeding gelatin was made with combining 200 g of distilled water and 4 g of paper gelatin (Gelita H G, Eberbach, Germany), and solidified in the refrigerator using an ice cubic stick tray with the lid closed. The same process was performed for the experimental group of gelatin containing alloferon peptide (Biomatik, Del., USA) of 1 ppm. The tray had 10 slots to make each gelatin of approximately 20 g gelatin cubic and kept in the refrigerator with the lids closed to minimize loss of moisture.\nYellow mealworms (Tenebrio molitor) were provided by a private local insect breeder (Mealworm village, Seoul, Korea). Mealworms larvae were divided into three different dietary groups: (1) About 500 larvae were placed in a plastic container (18.5×12×5.5 cm) with 30 g wheat bran only (control group), (2) About 500 larvae with wheat bran supplemented with 20 g gelatin three times per week (positive control group), (3) About 500 larvae with wheat bran supplemented with 20 g gelatin containing alloferon peptide of 1 ppm three times per week (experimental group). […]\nMealworms pupae and dead larvae were counted and removed daily from each experimental group, and the numbers were recorded for the evaluation of survival rate. The average weight of the mealworm larvae was recorded every week with 20 randomly selected mealworms."}, "Sf9 insect cells": {"system": "Sf9 insect cells", "experiment": "In vitro cell proliferation analysis by PrestoBlue assay", "assay_type": "cell-based", "details": "300 nM alloferon; measured at 0, 2, 4 and 6 days", "protocol": "The proliferation of Sf9 insect cells was analyzed by the PrestoBlue assay (Invitrogen, CA, USA). 8,000 cells/well were prepared in 96 well plates (Sigma-Aldrich, MI, USA). After cells were seeded, the cells were incubated with PBS with alloferon (300 nM). The control group received PBS without aloferon. At 0, 2, 4, and 6 days after applying 10% PrestoBlue, the color switchover of resazurin to resorufin (Absorbance 570 nm/600 nm) was measured with the microplate reader (BioTeck, Vt., USA)."}},
  "data": [
    {"substance": "H-His-Gly-Val-Ser-Gly-His-Gly-Gln-His-Gly-Val-His-Gly-OH (H-HGVSGHGQHGVHG-OH) [alloferon, immunomodulatory peptide (Biomatik) first isolated from hemolymph of Calliphora vicina maggots]", "values": [
      {"measurement": "phenoloxidase expression/activity in mealworm tissue", "setting": "Phenoloxidase", "result": "increasing the expression of penoloxidase"},
      {"measurement": "development time shortened compared to wheat bran diet control", "setting": "Tenebrio molitor [1]", "result": 40.3, "unit": "%"},
      {"measurement": "increase of survival rate", "setting": "Tenebrio molitor [2]", "result": "over 61.8%"},
      {"measurement": "cell proliferation of Sf9 cells", "setting": "Sf9 insect cells", "result": "significantly boosted cell proliferation of Sf9 cells only after 6 days"}
    ]}
  ]
}
